From paper PMC7044277 (Nature Communications, 2020)
“And” between values parts separate entries of the source, which are not always exact repeats. Equal entries are not always repeated.

Key:
DRD3 wild-type = DRD3 wild-type (Homo sapiens, UniProt P35462); experiment: Radioligand competition binding, [3H]-N-methylspiperone; conditions: DRD3 wild-type; read-out: pKi ± SEM (converted)
DRD2 (D2 long receptor) [1] = molecular target: T1, DRD2 (D2 long receptor) (Homo sapiens, UniProt P14416); experiment: Gαi/o-mediated cAMP inhibition (GloSensor split-luciferase cAMP reporter), HEK293T; format: cell-based; conditions: for response, Fig_S11d dose-response source data: replicate values; for Response, Fig_S11b dose-response: individual replicates;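 as to all read-outs here: compounds applied 15 min at room temperature, then luciferin plus 400 nM isoproterenol to raise cAMP through endogenous β2-adrenergic receptors, luminescence read 15 min later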
DRD3 = DRD3 (Homo sapiens, UniProt P35462); experiment: Gαi/o-mediated cAMP inhibition (GloSensor); format: cell-based; conditions: DRD3, cAMP inhibition
DRD2 (D2 long receptor) [2] = molecular target: T1, DRD2 (D2 long receptor); experiment: β-arrestin2 recruitment (Tango), HTLA cells; format: cell-based

T1 sequence (P14416 whole entry): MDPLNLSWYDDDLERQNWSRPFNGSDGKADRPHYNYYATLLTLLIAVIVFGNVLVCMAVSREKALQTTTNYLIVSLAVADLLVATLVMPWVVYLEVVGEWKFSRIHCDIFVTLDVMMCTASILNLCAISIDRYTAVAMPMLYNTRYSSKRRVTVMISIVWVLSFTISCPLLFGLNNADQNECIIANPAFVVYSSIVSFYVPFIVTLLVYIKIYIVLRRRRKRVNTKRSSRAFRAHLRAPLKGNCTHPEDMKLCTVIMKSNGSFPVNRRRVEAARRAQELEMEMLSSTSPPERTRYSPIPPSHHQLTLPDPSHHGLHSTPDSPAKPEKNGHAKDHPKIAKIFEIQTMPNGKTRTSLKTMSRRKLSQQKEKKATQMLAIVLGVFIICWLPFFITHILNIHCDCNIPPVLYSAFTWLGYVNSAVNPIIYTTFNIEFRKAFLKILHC
Sequence of DRD3 (P35462 whole entry): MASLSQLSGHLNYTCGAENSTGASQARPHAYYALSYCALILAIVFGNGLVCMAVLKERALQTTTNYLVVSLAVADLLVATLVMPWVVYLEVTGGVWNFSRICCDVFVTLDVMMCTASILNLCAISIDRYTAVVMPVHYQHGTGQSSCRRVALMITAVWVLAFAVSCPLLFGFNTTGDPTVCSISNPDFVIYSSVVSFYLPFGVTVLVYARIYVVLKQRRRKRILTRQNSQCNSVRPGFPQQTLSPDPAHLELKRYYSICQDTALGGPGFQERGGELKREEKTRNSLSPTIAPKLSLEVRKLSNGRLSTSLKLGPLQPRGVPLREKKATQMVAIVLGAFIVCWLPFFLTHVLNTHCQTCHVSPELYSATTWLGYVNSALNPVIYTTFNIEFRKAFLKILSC
Sequence of DRD3 wild-type (P35462 whole entry): as above

CCOc1cccc2cc(C(C)NCC3(O)CCCCC3)oc12 (centres unmarked) [O4LE6]
Ki (DRD3 wild-type): 224 nM | EC50 (DRD2 (D2 long receptor) [1]; DRD2, agonist, Gαi/o-mediated cAMP inhibition, read-out: EC50 ± SEM): 0.57 nM | response, Fig_S11d dose-response source data (DRD2 (D2 long receptor) [1]; Log[Drug] -6.52): 93.5634 | response, Fig_S11d dose-response source data (DRD2 (D2 long receptor) [1]; Log[Drug] -7): 91.3799 and 89.9656 and 96.7642 and 92.7028 and 90.0117 and 92.9852 and 92.6706 and 90.0792 and 94.9443 | response, Fig_S11d dose-response source data (DRD2 (D2 long receptor) [1]; Log[Drug] -7.52): 89.3701 and 83.9361 and 92.3724 and 89.5789 and 91.7807 and 86.0032 and 96.0478 and 86.7857 and 84.4618 | response, Fig_S11d dose-response source data (DRD2 (D2 long receptor) [1]; Log[Drug] -8): 70.6367 and 72.3736 and 84.6805 and 78.0803 and 77.3651 and 77.1016 and 86.6519 and 79.5632 and 77.7576 | response, Fig_S11d dose-response source data (DRD2 (D2 long receptor) [1]; Log[Drug] -8.52): 93.2656 and 95.6724 and 92.9431 and 77.1769 and 79.2659 and 71.4182 and 77.4232 and 75.6176 and 79.697 | response, Fig_S11d dose-response source data (DRD2 (D2 long receptor) [1]; Log[Drug] -9): 51.5311 and 33.9143 and 52.5981 and 65.5842 and 66.7322 and 55.2712 and 58.2302 and 71.02 and 60.3368 | response, Fig_S11d dose-response source data (DRD2 (D2 long receptor) [1]; Log[Drug] -9.52): 27.2398 and 43.5167 and 44.7822 and 40.3099 and 41.1379 and 42.7564 and 40.5085 and 50.7403 and 30.2265 | response, Fig_S11d dose-response source data (DRD2 (D2 long receptor) [1]; Log[Drug] -10): 9.9455 and 25.9991 and 17.2652 and 20.7754 and 27.795 and 3.65 and 25.4283 and 30.0426 and 37.3152 | response, Fig_S11d dose-response source data (DRD2 (D2 long receptor) [1]; Log[Drug] -10.52): 8.06 and 24.1134 and 23.7164 and -2.2029 and 14.9603 and -7.6605 and -4.2473 and 22.3855 and 15.9154 | response, Fig_S11d dose-response source data (DRD2 (D2 long receptor) [1]; Log[Drug] -11): 4.9334 and 7.216 and -1.766 and -6.3996 and -4.3107 and -5.3646 and 21.048 and 18.6238 and 5.767 | response, Fig_S11d dose-response source data (DRD2 (D2 long receptor) [1]; Log[Drug] -11.52): 10.5658 and 8.68 and -1.4434 and 5.588 and 4.9296 and 13.8311 and 19.0585 and 28.0698 and 34.2223 | response, Fig_S11d dose-response source data (DRD2 (D2 long receptor) [1]; Log[Drug] -12): -7.7209 and 3.569 and -11.1202 and -5.7974 and -18.3122 and 14.3957 and 12.4212 and 21.7836 and -1.1209 | Emax (DRD2 (D2 long receptor) [1]; HEK-293T, read-out: Emax relative to quinpirole response, DRD2, cAMP inhibition): 94.8% | Response, Fig_S11b dose-response (DRD2 (D2 long receptor) [1]; Log[Drug] -5): 94.6799 and 95.4987 and 95.201 and 94.3966 and 96.6361 and 95.6198 and 95.7635 and 88.9256 and 95.1617 | Response, Fig_S11b dose-response (DRD2 (D2 long receptor) [1]; Log[Drug] -5.52): 94.4814 and 96.3424 and 99.171 and 96.9372 and 94.2837 and 95.6198 and 98.4051 and 98.5221 and 95.5796 | Response, Fig_S11b dose-response (DRD2 (D2 long receptor) [1]; Log[Drug] -6): 96.5905 and 98.1785 and 100.163 and 88.2615 and 91.4043 and 96.2597 and 93.8409 and 94.9611 and 95.7301 | Response, Fig_S11b dose-response (DRD2 (D2 long receptor) [1]; Log[Drug] -6.52): 93.5634 and 99.7168 and 93.0671 and 101.473 and 96.4667 and 100.061 and 98.4218 and 97.9202 and 92.704 | Response, Fig_S11b dose-response (DRD2 (D2 long receptor) [1]; Log[Drug] -7): 91.3799 and 89.9656 and 96.7642 and 92.7028 and 90.0117 and 92.9852 and 92.6706 and 90.0792 and 94.9443 | Response, Fig_S11b dose-response (DRD2 (D2 long receptor) [1]; Log[Drug] -7.52): 89.3701 and 83.9361 and 92.3724 and 89.5789 and 91.7807 and 86.0032 and 96.0478 and 86.7857 and 84.4618 | Response, Fig_S11b dose-response (DRD2 (D2 long receptor) [1]; Log[Drug] -8): 70.6367 and 72.3736 and 84.6805 and 78.0803 and 77.3651 and 77.1016 and 86.6519 and 79.5632 and 77.7576 | Response, Fig_S11b dose-response (DRD2 (D2 long receptor) [1]; Log[Drug] -8.52): 93.2656 and 95.6724 and 92.9431 and 77.1769 and 79.2659 and 71.4182 and 77.4232 and 75.6176 and 79.697 | Response, Fig_S11b dose-response (DRD2 (D2 long receptor) [1]; Log[Drug] -9): 51.5311 and 33.9143 and 52.5981 and 65.5842 and 66.7322 and 55.2712 and 58.2302 and 71.02 and 60.3368 | Response, Fig_S11b dose-response (DRD2 (D2 long receptor) [1]; Log[Drug] -11): 4.9334 | Response, Fig_S11b dose-response (DRD2 (D2 long receptor) [1]; Log[Drug] -11.52): 10.5658 and 8.68 and -1.4434 and 5.588 and 4.9296 and 13.8311 and 19.0585 and 28.0698 and 34.2223 | Response, Fig_S11b dose-response (DRD2 (D2 long receptor) [1]; Log[Drug] -12): -7.7209 and 3.569 and -11.1202 and -5.7974 and -18.3122 and 14.3957 and 12.4212 and 21.7836 and -1.1209 | EC50 (DRD3; agonist, read-out: EC50 ± SEM): 5.09 ± 0.16 nM | Emax (DRD3; read-out: Emax relative to quinpirole response): 62.4% | EC50 (DRD2 (D2 long receptor) [2]; DRD2, β-arrestin2 recruitment (Tango), read-out: EC50 ± SEM): 43.2 ± 12.3 nM | response, Fig_S11c dose-response source data (DRD2 (D2 long receptor) [2]; Fig_S11c, Log[Drug] -5, replicate values): 112.633 and 105.275 and 98.5438 and 105.099 and 112.565 | response, Fig_S11e dose-response source data (DRD2 (D2 long receptor) [2]; Log[Drug] -6.52, replicate values): 78.7922 | response, Fig_S11e dose-response source data (DRD2 (D2 long receptor) [2]; Log[Drug] -7, replicate values): 72.0078 and 74.6368 and 66.9645 and 59.2359 and 63.6719 and 58.7266 and 59.326 and 73.941 and 65.8379 | response, Fig_S11e dose-response source data (DRD2 (D2 long receptor) [2]; Log[Drug] -7.52, replicate values): 37.8418 and 44.9592 and 58.6118 and 43.0054 and 55.0074 and 48.586 and 48.419 and 72.5528 and 64.0624 | response, Fig_S11e dose-response source data (DRD2 (D2 long receptor) [2]; Log[Drug] -8, replicate values): 15.3268 and 15.1148 and 16.7449 and 27.4037 and 26.6311 and 23.8074 and 19.9269 and 24.9446 and 21.2413
